Assays:
IL-10 = experiment: In vitro IL-10 assay: IL-10 ELISA of supernatant from IFNγ-primed THP-1 cells stimulated with SAC; type: cell-based, human; design: key: “+” indicates an increase in production; “−” indicates a decrease in production; details: effect on expression level of IL-10 in THP-1 cells primed with IFNγ and stimulated with 0.01% SAC; test compound 0.01 μM to 20 μM
Experimental: (§1) Exponentially growing THP-1 cells were plated (100K/well in 100 μL) in standard RPMI media (1% P/S+10% FBS) containing 50 ng/mL IFNγ (1000 U/mL) onto a white clear bottom 96 well plate and leave the cells in 37° C. incubator for 24 h.
(§2) After 24 h incubation, 100 μL of RPMI media containing 2× concentrated test compound per well was added to the above cell-culture media (final concentration of test compound was from 0.01 μM to 20 μM). The plates were pre-incubated for 1 h at 37° C. before being stimulated with SAC.
(§3) After 1 h compound pre-incubation, 10 μL per well of 20× concentrated SAC solution in RPMI media was added to give a final concentration of 0.01%, the plates were shaken and incubated at 37° C. for an additional 18 h.
(§4) 155 μL of the supernatant was harvested from each well and to the remaining 50 μL/well of the cell culture plate was added 50 μL of CELL TITER GLO® reagent. The plates were incubated for 1-2 minutes on a shaker and read for luminescence intensity to determine the compound cytotoxicity.
(§5) The cell culture supernatant collected above was used to carry out IL23 ELISA (65 μL-Supernatant) and IL10 ELISA (90 μL-Supernatant) as described below.
C. Human IL-10 ELISA Protocol (e-Biosciences)
Cell Culture Supernatant (90 μL from THP-1 cells primed with IFNγ (50 ng/mL-1000 U/mL) and stimulated with 0.01% SAC)
To 10.5 mL PBS was added 50 μL of anti-IL10 capture antibody (2.5 μg/mL), mixed well and 100 μL of the coating solution was added to each well of the 96 well white plates from Pierce. The plates were covered and incubated overnight at 4° C.
The anti-IL10 antibody-coated plates were washed 2× using TBST (use plate washer) and blocked the using 200 μL of 0.5% Casein for 1.5-2 h at RT with shaking.
The plates were washed 2× using TBST and the supernatant (100 μL/well) was transferred to the above pre-blocked/IL10-antibody-coated 96 well plate and incubated at RT for 1.5 h with shaking.
The plate was washed 4× using TBST (plate washer) and 100 μL/well detection antibody solution prepared from 2 μL of biotin labeled anti-IL-10 antibody in 11 mL 1% BSA/PBS solution (1-5000 dilution) was added. The plates were incubated for 1 hour with shaking at RT.
(§6) Again, the plate was washed 4× with TBST and 100 μL of HRP labeled Streptavidin (R&D Systems) solution (10 μL/10 mL 1% BSA solution) was added and incubated at RT for another 45 min with shaking.
After 45 min, the plate was washed with TBST 4× and 100 uL/well Super Signal ELISA Pico Chemiluminescent Substrate from Pierce (3.5 mL A+3.5 mL B+3.5 mL MQ water) was added, the plate was shaken for 1-2 minutes then read on a plate reader to quantify the amount of IL-10 secreted by the cells.

IL-23 = experiment: In vitro IL-23 assay: IL-23 (p19/p40) ELISA of supernatant from IFNγ-primed THP-1 cells stimulated with SAC; type: cell-based, human; design: key: “+” indicates an increase in production; “−” indicates a decrease in production; details: effect on expression level of IL-23 in THP-1 cells primed with IFNγ and stimulated with 0.01% SAC; test compound 0.01 μM to 20 μM
Experimental: as §1, §2, §3, §4, §5
B. Human IL-23 (p19/p40) ELISA Protocol (e-Biosciences)
Cell Culture Supernatant (65 μL from THP-1 cells primed with IFNγ (50 ng/mL-1000 U/mL) and stimulated with 0.01% SAC)
To 10.5 mL PBS was added 50 μL of anti-IL23 (p19) capture antibody (2.5 μg/mL), mixed well and 100 μL of the coating solution was added to each well of the 96 well white plates from Pierce, cover and incubate overnight at 4° C.
The anti-IL23 (p19)-antibody-coated plates were washed 2× using TBST (use plate washer) and the plates were blocked using 200 μL of 0.5% Casein for 1.5-2 h at room temperature with shaking.
The plates were washed 2× using TBST and the supernatant (65 μL/well) was transferred to the above pre-blocked/IL23(p19)-antibody-coated 96 well plate and incubated at RT for 1.5 h with shaking.
The plate was washed 4× using TBST (plate washer) and 100 μL/well of detection antibody solution was added. The detection antibody solution was prepared from 2 μL of biotin labeled anti-IL-12 (p40/p70) antibody in 11 mL 1% BSA/PBS solution (1-5000 dilution). The plates were incubated for 1 hour with shaking at RT.
as §6
After 45 min, the plate was washed with TBST 4× and 100 μL/well Super Signal ELISA Pico Chemiluminescent Substrate from Pierce (3.5 mL A+3.5 mL B+3.5 mL MQ water) was added, the plate was shaken for 1-2 minutes then read on a plate reader to quantify the amount of IL-23 secreted by the cells.

SMILES | IL-10 (IL-10) | IL-23 (IL-23)
CN1CCN(c2ccc(Nc3ncc(F)c(NC4CC(C)(C)N(C)C(C)(C)C4)n3)cc2Cl)CC1 [Compound 6] | + | 
CN1C(C)(C)CC(Nc2nc(Nc3ccc(N4CCN(S(C)(=O)=O)CC4)c(C(F)(F)F)c3)ncc2[N+](=O)[O-])CC1(C)C [Compound 20] | + | 
CN1C(C)(C)CC(Nc2nc(Nc3ccc(N4CCN(S(C)(=O)=O)CC4)c(C#N)c3)ncc2F)CC1(C)C [Compound 12] | + | 
CN1C(C)(C)CC(Nc2nc(Nc3ccc(N4CCN(S(C)(=O)=O)CC4)c(C(F)(F)F)c3)ncc2C(F)(F)F)CC1(C)C [Compound 25] | + | −
CCN1C(=O)C(F)(F)Oc2cc(Nc3ncc(F)c(NC4CC(C)(C)N(C)C(C)(C)C4)n3)ccc21 [Compound 16] | + | 
CN1CCN(c2ccc(Nc3ncc(F)c(NC4CC(C)(C)N(C)C(C)(C)C4)n3)cc2C(F)(F)F)CC1 [Compound 2] | − | −
CN1C(C)(C)CC(Nc2nc(Nc3ccc(S(=O)(=O)N4CCNCC4)c(Cl)c3)ncc2F)CC1(C)C [Compound 9] | + | 
CN1C(C)(C)CC(Nc2nc(Nc3ccc(N4CCN(S(C)(=O)=O)CC4)c(Cl)c3)ncc2F)CC1(C)C [Compound 5] | + | 
CN1C(C)(C)CC(Nc2nc(Nc3ccc(N4CCN(S(C)(=O)=O)CC4)c(Cl)c3)ncc2C#N)CC1(C)C [Compound 23] | + | −
CN1C(C)(C)CC(Nc2nc(Nc3ccc(N4CCN(S(C)(=O)=O)CC4)c(C(F)(F)F)c3)ncc2F)CC1(C)C [Compound 10] | + | 
COc1ccc(Nc2ncc(F)c(NC3CC(C)(C)N(C)C(C)(C)C3)n2)cc1OC(F)F [Compound 14] | + | 
CN1C(C)(C)CC(Nc2nc(Nc3ccc(N4CCN(S(=O)(=O)C5CC5)CC4)c(Cl)c3)ncc2F)CC1(C)C [Compound 15] | + | 
CN1C(C)(C)CC(Nc2nc(Nc3ccc(N4CCN(S(C)(=O)=O)CC4)c(OC(F)F)c3)ncc2F)CC1(C)C [Compound 13] | + | 
CN1C(C)(C)CC(CNc2nc(Nc3ccc(N4CCN(S(C)(=O)=O)CC4)c(C(F)(F)F)c3)ncc2F)C1(C)C (centres unmarked) [Compound 7] | + | −
CN1C(C)(C)CC(Nc2nc(Nc3ccc(N4CCN(S(=O)(=O)C5CC5)CC4)c(C(F)(F)F)c3)ncc2F)CC1(C)C [Compound 11] | + | 
CN1CCN(c2ccc(Nc3ncc(F)c(NC4CC(C)(C)N(C)C4(C)C)n3)cc2C(F)(F)F)CC1 (centres unmarked) [Compound 4] | − | −
CN1CCN(c2ccc(Nc3ncc(F)c(NC4CC(C)(C)N(C)C(C)(C)C4)n3)cc2Cl)CC1 [Compound 17] | − | 
CN1C(C)(C)CC(Nc2nc(Nc3ccc(N4CCN(S(C)(=O)=O)CC4)c(C(F)(F)F)c3)ncc2C#N)CC1(C)C [Compound 22] | + | 
CN1C(C)(C)CC(Nc2nc(Nc3ccc(N4CCN(S(C)(=O)=O)CC4)c(Cl)c3)ncc2[N+](=O)[O-])CC1(C)C [Compound 21] | + | 
CN1C(C)(C)CC(Nc2nc(Nc3ccc(N4CCN(S(C)(=O)=O)CC4)c(C(F)(F)F)c3)ncc2F)C1(C)C (centres unmarked) [Compound 3] | + | −
CN1C(C)(C)CC(Nc2nc(Nc3ccc(N4CCN(S(C)(=O)=O)CC4)c(Cl)c3)ncc2C(F)(F)F)CC1(C)C [Compound 26] | + | 
CN1C(C)(C)CC(Nc2nc(Nc3ccc(N4CCN(S(C)(=O)=O)CC4)c(C#N)c3)ncc2C#N)CC1(C)C [Compound 24] | + | 
CN1CCN(S(=O)(=O)c2ccc(Nc3ncc(F)c(NC4CC(C)(C)N(C)C(C)(C)C4)n3)cc2Cl)CC1 [Compound 8] | + | −
CCOC(=O)c1cnc(Nc2ccc(N3CCN(S(C)(=O)=O)CC3)c(C(F)(F)F)c2)nc1NC1CC(C)(C)N(C)C(C)(C)C1 [Compound 18] | + | −
CN1C(C)(C)CC(Nc2nc(Nc3ccc(N4CCN(S(C)(=O)=O)CC4)c(C(F)(F)F)c3)ncc2F)CC1(C)C [Compound 1] |  | −
CCOC(=O)c1cnc(Nc2ccc(N3CCN(S(C)(=O)=O)CC3)c(Cl)c2)nc1NC1CC(C)(C)N(C)C(C)(C)C1 [Compound 19] | + | −

From patent US8575165B2, “Methods for treating inflammatory disorders using 2,4-pyrimidinediamine compounds” (Rigel Pharmaceuticals, Inc., priority 2009, dated 2013)
